{
  "source": "paper PMC3038857",
  "about": "“Using Nuclear Receptor Activity to Stratify Hepatocarcinogens” (PLoS ONE, 2011)",
  "key": {"[1]": {"test_system": "SR", "settings": "cited from earlier work"}, "[2]": {"test_system": "cytochrome P-450 in the 2B subfamily", "settings": "mouse, in vivo; cited from earlier work"}, "[3]": {"test_system": "AhR, CAR, PXR, PPAR, LXR, SR and RXR"}, "[4]": {"test_system": "PPAR", "set-up": "method as in PMID 17084873", "settings": "in rats; cited from earlier work"}, "[5]": {"test_system": "PPAR", "assay": "Aggregate nuclear receptor activity: PPAR", "settings": "aggregate human NR activity, in words", "excerpt": "(§1) To summarize the activity of chemicals across the NR superfamily we aggregated the ToxCast assays for genes and NR groups as follows: retinoic X receptor-like (RXR; [drawing 5]; NR2B); peroxisome proliferator-activated receptor-like (PPAR; [drawing 6]; NR1C); constitutive androstane receptor ( [drawing 7]; [drawing 8]; [drawing 9] ); pregnane X receptor ( [drawing 10]; [drawing 11] ); liver X receptor-like (LXR; [drawing 12] , FXR; NR1H); and steroid receptor-like (SR; [drawing 13] , [drawing 14] , [drawing 15] ). These are shown visually in Figure 1(a). As there were differences in the number and types of assays for each group, aggregate activity was calculated as the average potency across the assays measured by the AC50 or LEC (described in Methods). This approach aggregated NR binding, activation, agonism or antagonism results into a single assessment of activity.\n(§2) All data used in this analysis are publicly available from the ToxCast website (www.epa.gov/toxcast). The analysis was conducted using the R statistical language (www.r-project.org). For each chemical [drawing 77] , and assay [drawing 78] combination we derived either the AC50 (50% maximal activity concentration) or LEC (Lowest Effective Concentration) in [drawing 79] M denoted as, [drawing 80] . All chemicals are provided in Dataset S3 and all assays are given in Dataset S1. The procedure for evaluating the quality of [drawing 81] are described in the supplementary methods (Text S1) and all assay results are provided in Dataset S2. In order to facilitate comparison across the assays the [drawing 82] were transformed by the formula, [drawing 83] where [drawing 84] represents a the potency on an ascending scale, and [drawing 85] is the maximum concentration (lowest potency) across the data set.\n(§3) The aggregate NR activity [drawing 86] , where [drawing 87] , was calculated using assays [drawing 88] . The aggregate scaled NR activity score for each chemical [drawing 89] was calculated as the average concentration value across the assays, scaled by the maximum value across all chemicals using Equation 1. [drawing 90] (1)"}, "[6]": {"test_system": "SR (steroid receptor-like)", "assay": "Aggregate nuclear receptor activity: SR", "settings": "aggregate human NR activity, in words", "excerpt": "as §1, §2, §3"}, "[7]": {"test_system": "PXR", "assay": "Aggregate nuclear receptor activity: PXR", "set-up": "species or system human", "excerpt": "as §1, §2, §3"}, "[8]": {"test_system": "liver", "assay": "Cancer lesion progression: 2-year chronic rat and mouse liver histopathology (ToxRefDB), lesion progression groups (LPG)", "settings": "liver lesions after 2-year chronic treatment, ToxRefDB data clustered into groups I-VIII"}, "[9]": {"test_system": "CAR", "assay": "Aggregate nuclear receptor activity: CAR", "settings": "aggregate human NR activity, in words", "excerpt": "as §1, §2, §3"}, "[10]": {"test_system": "AhR", "assay": "Aggregate nuclear receptor activity: AhR", "settings": "aggregate human NR activity, in words", "excerpt": "as §1, §2, §3"}, "[11]": {"test_system": "liver", "settings": "in vivo"}, "[12]": {"test_system": "LXR", "assay": "Aggregate nuclear receptor activity: LXR", "settings": "aggregate human NR activity, in words", "excerpt": "as §1, §2\nas §3, with “(1)” left out"}, "[13]": {"test_system": "human PXR", "set-up": "method as in PMID 16565514", "settings": "cited from earlier work"}, "[14]": {"settings": "aggregate human NR activity, in words"}},
  "note": "Read-outs that look alike come from different tables or passages of the source.",
  "data": [
    {"smiles": "CNC(=O)Oc1cccc2ccccc12", "note": "[Carbaryl, naphthalen-1-yl methylcarbamate]", "values": [
      {"measurement": "SR activity", "setting": "[1]", "value": "activity"}
    ]},
    {"smiles": "CC(C1CC1)C(O)(Cn1cncn1)c1ccc(Cl)cc1", "note": "(stereo not shown) [Cyproconazole, 2-(4-chlorophenyl)-3-cyclopropyl-1-(1H-1,2,4-triazol-1-yl)butan-2-ol]", "values": [
      {"measurement": "expression of a cytochrome P-450 in the 2B subfamily", "setting": "[2]", "value": "induce expression"}
    ]},
    {"smiles": "CCCCOC(=O)c1ccccc1C(=O)OCCCC", "note": "[Dibutyl phthalate, dibutyl phthalate]", "values": [
      {"measurement": "overall NR activity", "setting": "[3]", "value": "low NR activity"}
    ]},
    {"smiles": "COC(=O)C(C)Oc1ccc(Oc2ccc(Cl)cc2Cl)cc1", "note": "(stereo not shown) [Diclofop-methyl, methyl 2-[4-(2,4-dichlorophenoxy)phenoxy]propanoate]", "values": [
      {"measurement": "PPAR activity", "setting": "[4]", "value": "active"},
      {"measurement": "activity with PPAR", "setting": "[5]", "value": "most consistently active"},
      {"measurement": "activity with SR", "setting": "[6]", "value": "some activity"},
      {"measurement": "activity with PXR", "setting": "[7]; [14]", "value": "some activity"},
      {"measurement": "lesion progression group (LPG)", "setting": "[8]", "value": "I"},
      {"measurement": "activity with CAR", "setting": "[9]", "value": "some activity"},
      {"measurement": "activity with AhR", "setting": "[10]", "value": "some activity"}
    ]},
    {"smiles": "CC[C@H](C)[C@H]1O[C@]2(C=C[C@@H]1C)C[C@@H]1C[C@@H](C/C=C(\\C)[C@@H](O[C@H]3C[C@H](OC)[C@@H](O[C@H]4C[C@H](OC)[C@@H](NC)[C@H](C)O4)[C@H](C)O3)[C@@H](C)/C=C/C=C3\\CO[C@@H]4[C@H](O)C(C)=C[C@@H](C(=O)O1)[C@]34O)O2.O=C(O)c1ccccc1", "note": "[Emamectin benzoate, (2aE,4E,5\\S,6S,6\\R,7S,8E,11R,13S,15S,17aR,20R,20aR,20bS)-20,20b-dihydroxy-5\\,6,8,19-tetramethyl-6\\-[(1S)-1-methylpropyl]-17-oxo-5\\,6,6\\,10,11,14,15,17,17a,20,20a,20b-dodecahydro-2H,7H-spiro[11,15-methanofuro[4,3,2-pq][2,6]benzodioxacyclooctadecine-13,2\\-pyran]-7-yl 2,6-dideoxy-3-O-methyl-4-O-[2,4,6-trideoxy-3-O-methyl-4-(methylammonio)-a-L-arabino-hexopyranosyl]-a-L-arabino-hexopyranoside benzoate]", "values": [
      {"measurement": "lesion progression group (LPG)", "setting": "[11]", "value": "Emamectin benzoate"}
    ]},
    {"smiles": "N#Cc1c[nH]cc1-c1cccc2c1OC(F)(F)O2", "note": "[Fludioxonil, 4-(2,2-difluoro-1,3-benzodioxol-4-yl)-1H-pyrrole-3-carbonitrile]", "values": [
      {"measurement": "activity with LXR", "setting": "[12]", "value": "less frequently"},
      {"measurement": "activity with PPAR", "setting": "[5]", "value": "less frequently"},
      {"measurement": "activity with SR", "setting": "[6]", "value": "less frequently"},
      {"measurement": "activity with PXR", "setting": "[7]; [14]", "value": "consistently active"}
    ]},
    {"smiles": "CS(=O)(=O)c1cc(C(F)(F)F)ccc1C(=O)c1cnoc1C1CC1", "note": "[Isoxaflutole, (5-cyclopropylisoxazol-4-yl)[2-(methylsulfonyl)-4-(trifluoromethyl)phenyl]methanone]", "values": [
      {"measurement": "lesion progression group (LPG)", "setting": "[11]", "value": "I"}
    ]},
    {"smiles": "CCOC(=O)C(C)OC(=O)c1cc(Oc2ccc(C(F)(F)F)cc2Cl)ccc1[N+](=O)[O-]", "note": "(stereo not shown) [Lactofen, 2-ethoxy-1-methyl-2-oxoethyl 5-[2-chloro-4-(trifluoromethyl)phenoxy]-2-nitrobenzoate]", "values": [
      {"measurement": "activity with LXR", "setting": "[12]", "value": "less frequently"},
      {"measurement": "activity with PPAR", "setting": "[5]", "value": "less frequently"},
      {"measurement": "activity with SR", "setting": "[6]", "value": "less frequently"},
      {"measurement": "activity with PXR", "setting": "[7]", "value": "consistently active"},
      {"measurement": "lesion progression group (LPG)", "setting": "[11]", "value": "I"},
      {"measurement": "activity with CAR", "setting": "[9]", "value": "consistently active"},
      {"measurement": "activity with AhR", "setting": "[10]", "value": "consistently active"}
    ]},
    {"smiles": "Cl[C@H]1[C@H](Cl)[C@@H](Cl)[C@@H](Cl)[C@H](Cl)[C@H]1Cl", "note": "[Lindane, (1r,2R,3S,4r,5R,6S)-1,2,3,4,5,6-hexachlorocyclohexane]", "values": [
      {"measurement": "activity with PXR", "setting": "[7]; [14]", "value": "active"},
      {"measurement": "lesion progression group (LPG)", "setting": "[11]", "value": "Lindane"},
      {"measurement": "activity with AhR", "setting": "[10]", "value": "active"}
    ]},
    {"smiles": "CCOC(=O)CC(SP(=S)(OC)OC)C(=O)OCC", "note": "(stereo not shown) [Malathion, diethyl 2-[(dimethoxyphosphorothioyl)thio]succinate]", "values": [
      {"measurement": "SR activity", "setting": "[1]", "value": "known SR activity"},
      {"measurement": "activity with PPAR", "setting": "[5]", "value": "most consistently active"},
      {"measurement": "activity with SR", "setting": "[6]", "value": "some activity"},
      {"measurement": "activity with PXR", "setting": "[7]; [14]", "value": "some activity"},
      {"measurement": "activity with CAR", "setting": "[9]", "value": "some activity"},
      {"measurement": "activity with AhR", "setting": "[10]", "value": "some activity"}
    ]},
    {"smiles": "CC(C)Oc1cc(-n2nc(C(C)(C)C)oc2=O)c(Cl)cc1Cl", "note": "[Oxadiazon, 5-tert-butyl-3-(2,4-dichloro-5-isopropoxyphenyl)-1,3,4-oxadiazol-2(3H)-one]", "values": [
      {"measurement": "activity with LXR", "setting": "[12]", "value": "less frequently"},
      {"measurement": "activity with PPAR", "setting": "[5]", "value": "less frequently"},
      {"measurement": "activity with SR", "setting": "[6]", "value": "less frequently"},
      {"measurement": "activity with PXR", "setting": "[7]; [14]", "value": "consistently active"},
      {"measurement": "lesion progression group (LPG)", "setting": "[11]", "value": "I"},
      {"measurement": "activity with CAR", "setting": "[9]", "value": "consistently active"},
      {"measurement": "human PXR activity", "setting": "[13]", "value": "known human PXR activity"},
      {"measurement": "activity with AhR", "setting": "[10]", "value": "consistently active"}
    ]},
    {"smiles": "C=CC1(C)OC(=O)N(c2cc(Cl)cc(Cl)c2)C1=O", "note": "(stereo not shown) [Vinclozolin, 3-(3,5-dichlorophenyl)-5-methyl-5-vinyl-1,3-oxazolidine-2,4-dione]", "values": [
      {"measurement": "SR activity", "setting": "[1]", "value": "known SR active"},
      {"measurement": "activity with PPAR", "setting": "[5]", "value": "most consistently active"},
      {"measurement": "activity with SR", "setting": "[6]", "value": "some activity"},
      {"measurement": "activity with PXR", "setting": "[7]", "value": "some activity"},
      {"measurement": "lesion progression group (LPG)", "setting": "[11]", "value": "I"},
      {"measurement": "activity with AhR", "setting": "[10]", "value": "some activity"}
    ]}
  ]
}
